Data from PubChem BioAssay AID2060493 (Molecular Pharmacology Branch, DTP, NCI, 2025).
Where “and” joins values, the source holds several entries; their conditions need not be identical. Equal values may be shown once.

System: 616215-338-R-J1-PDC tumor spheroids, viability
Experiment: Anticancer human tumor 616215-338-R-J1-PDC patient-derived colon adenocarcinoma cell line growth inhibition [GQUAD]
Details: spheroids with HUVEC and MSC; for viability, T/C: stronger effect = lower value
From the text: DNA G-quadruplex Stabilizer Agents in Combinations in Complex Spheroids
A high-throughput screen of multi-cell type tumor spheroids was designed to identify active combinations of DNA G-quadruplex stabilizer agents and targeted small molecules. Complex spheroids include a stromal component modeled by human endothelial cells (HUVEC) and fibroblasts modeled by human mesenchymal stem cells (MSCs). The concentration ranges selected for each drug and investigational agent were based upon clinically achievable concentrations if the clinical Cmax of the agent was known.
Compounds. The drugs and investigational agents: pidnarulex (CX-5461; NSC782164), APTO-253 (NSC789042), BRACO-19 (NSC847499), peposertib (NSC802822), ceralasertib (NSC780249), elimusertib (NSC800525), camonsertib (NSC841442), AZD-1390 (NSC803789), olaparib (NSC753686), talazoparib (NSC767125), ART-558 (NSC835418), sotorasib (NSC818433), MRTX-1133 (NSC836407), SN-38 (NSC673596), topotecan (NSC609699), etoposide (NSC141540), doxorubicin (NSC123127), gemcitabine (NSC613327), 5-fluorouracil (NSC19893), paclitaxel (NSC125973), vemurafenib (NSC761431), panobinostat (NSC761190), R-306465 (JNJ-16241199; NSC773264), adavosertib (NSC754352), TP-3654 (NSC805149), carboplatin (NSC241240), KSQ-4279 (NSC840948), and staurosporine (NSC755774) were obtained from the National Cancer Institute (NCI) Developmental Therapeutics Program Chemical Repository (34). The FDA-approved anticancer drug set is available from the NCI Developmental Therapeutics Program. […] The stock solutions were prepared in dimethyl sulfoxide (DMSO, Sigma-Aldrich, St. Louis, MO, cat. D2650) at 800-fold the tested concentration and stored at -70 degrees C prior to their use. All drugs and investigational agents were tested over a range starting from a high concentration at or near the clinical Cmax and decreasing in half-log increments. If the clinical Cmax for an agent had not been determined, the highest concentration tested was 10 microM.
2.3 Cell Culture. All cells were maintained in an incubator at 37 degrees C and 5% CO2 with 95% humidity. The PDC lines were cultured according to standard operating procedures established by the NCI PDMR. All PDCs were thawed and cultured in Matrigel-coated flasks prepared with a working solution of 1X Ham's F-12 nutrient mix, without supplementation (Invitrogen, cat. 11765054), 100 U/mL penicillin-streptomycin (Invitrogen, cat. 15140122), and 2.5% Matrigel (Corning Inc., cat. 354248) for the first three passages. The 857933-349-R-J2-PDC line was cultured in 6C/Colon 1B media, which includes advanced DMEM/F-12 (Thermo Fisher Scientific, cat. 12634028), 10 mM HEPES (Thermo Fisher Scientific, cat. 15630080), 1X GlutaMAX supplement (Thermo Fisher Scientific, cat. 35050061), 0.1 mg/mL primocin (InvivoGen, cat. ant-pm-2), 10% defined fetal bovine serum, heat inactivated (HyClone Laboratories Inc., cat. SH30070.03HI), 50% L-WRN conditioned media (ATCC, cat. CRL-3276), 1.25 mM N-Acetyl-L-cysteine (Sigma-Aldrich, cat. A9165), 10 mM nicotinamide (Sigma-Aldrich, cat. N0636), 1X B-27 supplement (Thermo Fisher Scientific, cat. 17504044), 1X N-2 supplement (Thermo Fisher Scientific, cat. 17502048), 10 microM Y-27632 dihydrochloride (Tocris Bioscience, cat. 1254), and 50 ng/mL human EGF recombinant protein (Thermo Fisher Scientific, cat. PHG0311). The 485176-168-R4-J1-PDC line was cultured in Panc media, which includes all 6C/Colon 1B media components plus 100 ng/mL human FGF-10 (Thermo Fisher Scientific, cat. 100-26), 500 nM SB-431542 (Selleckchem, cat. S1067), and gastrin (Tocris, cat. 3006).
[…]
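Note: spheroids exposed to agents for 7 days before readout.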
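Throughout, for viability, T/C: percent viability relative to DMSO vehicle control wells taken as 100%.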

CCCS(=O)(=O)Nc1ccc(F)c(C(=O)c2c[nH]c3ncc(-c4ccc(Cl)cc4)cc23)c1F
viability, T/C (compound 0.0316 µM): 100% (2×) and 106% | viability, T/C (compound 0.1 µM): 103% and 95.3% and 98.6% | viability, T/C (compound 0.316 µM): 97.9% and 100% and 97.8% | viability, T/C (compound 1 µM): 97% and 88.9% and 91.9% | viability, T/C (compound 3.16 µM): 89.7% and 88.8% and 104% | viability, T/C (compound 10 µM): 3.68% and 3.75% and 6.39% | IC50 (curve of compound): 5380 nM and 5350 nM and 5840 nM

CCc1c2c(nc3ccc(O)cc13)-c1cc3c(c(=O)n1C2)COC(=O)[C@]3(O)CC
viability, T/C (compound 0.000999 µM): 93.6% and 102% (2×) | viability, T/C (compound 0.00316 µM): 75.4% and 93.8% and 87.9% | viability, T/C (compound 0.00999 µM): 63.3% and 61.1% and 66.4% | viability, T/C (compound 0.0316 µM): 24.8% and 30.3% and 29.4% | viability, T/C (compound 0.0999 µM): 22% and 16.5% and 16.2% | viability, T/C (compound 0.316 µM): 14.9% and 9.21% and 12.4% | IC50 (curve of compound): 13.9 nM and 15.6 nM and 16.3 nM

COc1cccc2c1C(=O)c1c(O)c3c(c(O)c1C2=O)CC(O)(C(=O)CO)CC3OC1CC(N)C(O)C(C)O1 (stereo not drawn) + CN(C)c1ccc(Nc2c3ccc(NC(=O)CCN4CCCC4)cc3nc3cc(NC(=O)CCN4CCCC4)ccc23)cc1
IC50 (curve of first compound, second compound 0.0316 µM): 467 nM | IC50 (curve of first compound, second compound 0.1 µM): 511 nM | IC50 (curve of first compound, second compound 0.316 µM): 483 nM | IC50 (curve of first compound, second compound 1 µM): 469 nM | IC50 (curve of first compound, second compound 3.16 µM): 511 nM | IC50 (curve of first compound, second compound 10 µM): 348 nM | viability, T/C (second compound 0.0316 µM, first compound 0.0316 µM): 101% | viability, T/C (second compound 0.0316 µM, first compound 0.1 µM): 88% | viability, T/C (second compound 0.0316 µM, first compound 0.316 µM): 51.7% | viability, T/C (second compound 0.0316 µM, first compound 1 µM): 36.2% | viability, T/C (second compound 0.0316 µM, first compound 3.16 µM): 17.7% | viability, T/C (second compound 0.0316 µM, first compound 10 µM): 1.14% | viability, T/C (second compound 0.1 µM, first compound 0.0316 µM): 101% | viability, T/C (second compound 0.1 µM, first compound 0.1 µM): 92.3% | viability, T/C (second compound 0.1 µM, first compound 0.316 µM): 47.3% | viability, T/C (second compound 0.1 µM, first compound 1 µM): 41.3% | viability, T/C (second compound 0.1 µM, first compound 3.16 µM): 20.1% | viability, T/C (second compound 0.1 µM, first compound 10 µM): 0.23% | viability, T/C (second compound 0.316 µM, first compound 0.0316 µM): 105% | viability, T/C (second compound 0.316 µM, first compound 0.1 µM): 90.8% | viability, T/C (second compound 0.316 µM, first compound 0.316 µM): 49.3% | viability, T/C (second compound 0.316 µM, first compound 1 µM): 38% | viability, T/C (second compound 0.316 µM, first compound 3.16 µM): 20.1% | viability, T/C (second compound 0.316 µM, first compound 10 µM): 0.36% | viability, T/C (second compound 1 µM, first compound 0.0316 µM): 102% | viability, T/C (second compound 1 µM, first compound 0.1 µM): 77.8% | viability, T/C (second compound 1 µM, first compound 0.316 µM): 53.3% | viability, T/C (second compound 1 µM, first compound 1 µM): 36% | viability, T/C (second compound 1 µM, first compound 3.16 µM): 19.9% | viability, T/C (second compound 1 µM, first compound 10 µM): 1.11% | viability, T/C (second compound 3.16 µM, first compound 0.0316 µM): 97.6% | viability, T/C (second compound 3.16 µM, first compound 0.1 µM): 87.2% | viability, T/C (second compound 3.16 µM, first compound 0.316 µM): 46.3% | viability, T/C (second compound 3.16 µM, first compound 1 µM): 45.4% | viability, T/C (second compound 3.16 µM, first compound 3.16 µM): 19.6% | viability, T/C (second compound 3.16 µM, first compound 10 µM): 3.39% | viability, T/C (second compound 10 µM, first compound 0.0316 µM): 101% | viability, T/C (second compound 10 µM, first compound 0.1 µM): 78% | viability, T/C (second compound 10 µM, first compound 0.316 µM): 48.9% | viability, T/C (second compound 10 µM, first compound 1 µM): 30.5% | viability, T/C (second compound 10 µM, first compound 3.16 µM): 20.5% | viability, T/C (second compound 10 µM, first compound 10 µM): 2.68%

Cc1[nH]c2ccccc2c1CCNCc1ccc(/C=C/C(=O)NO)cc1
viability, T/C (compound 0.000999 µM): 103% and 102% and 97.5% | viability, T/C (compound 0.00316 µM): 95.9% and 93.8% and 101% | viability, T/C (compound 0.00999 µM): 92.1% and 107% and 103% | viability, T/C (compound 0.0316 µM): 108% and 94.3% and 87.4% | viability, T/C (compound 0.0999 µM): 69.3% and 72.3% and 79.7% | viability, T/C (compound 0.316 µM): 17.6% and 10.8% and 27.7% | IC50 (curve of compound): 154 nM and 151 nM and 189 nM
